Test results as given in ChEMBL document CHEMBL1909597, “Biological evaluation of glycosyl-isoindigo derivatives against the pathogenic agents of tropical diseases (malaria, Chagas disease, leishmaniasis and human African trypanosomiasis)” (Bioorg Med Chem Lett, 2011).

Columns and labels:
[1] = tested on: Trypanosoma brucei rhodesiense; assay: Antiparasitic activity against bloodstream form of Trypanosoma brucei rhodesiense STIB 900 […] after 72 hrs by Alamar blue assay; type: functional, organism-based; settings: STIB 900, 72 h
Trypanosoma cruzi = assay: Antiparasitic activity against trypomastigotes of Trypanosoma cruzi Tulahuen C2C4 expressing LacZ gene infected in rat L6 cells after 96 hrs; type: functional, organism-based; settings: Tulahuen C2C4, L6, 96 h
L6 = assay: Cytotoxicity against rat L6 cells after 72 hrs by Alamar blue assay; type: cell-based; settings: L6, 72 h
Leishmania donovani = assay: Antiparasitic activity against amastigotes of Leishmania donovani MHOM/ET/67/L82 […] after 72 hrs by Alamar blue assay; type: functional, organism-based; settings: MHOM/ET/67/L82, 72 h
Plasmodium falciparum = assay: Antiparasitic activity against Plasmodium falciparum K1 […] assessed as inhibition of parasite growth preincubated for 48 hrs before [3H]hypoxanthine addition measured after 24 hrs by [3H]hypoxanthine incorporation assay; type: functional, organism-based
[2] = Selectivity index, ratio of IC50 for rat L6 cells to IC50 for bloodstream form of Trypanosoma brucei rhodesiense STIB 900; type: toxicity, cell-based; settings: read-out: Ratio IC50
[3] = Selectivity index, ratio of IC50 for rat L6 cells to IC50 for Leishmania donovani MHOM/ET/67/L82 amastigotes; type: toxicity, cell-based; settings: read-out: Ratio IC50
[4] = Selectivity index, ratio of IC50 for rat L6 cells to IC50 for Plasmodium falciparum K1; type: toxicity, cell-based; settings: read-out: Ratio IC50
[5] = Selectivity index, ratio of IC50 for rat L6 cells to IC50 for Trypanosoma cruzi Tulahuen C2C4 trypomastigotes; type: toxicity, cell-based; settings: read-out: Ratio IC50

CC(=O)OC[C@H]1O[C@@H](N2C(=O)/C(=C3/C(=O)Nc4ccccc43)c3ccccc32)[C@H](OC(C)=O)[C@@H](OC(C)=O)[C@@H]1OC(C)=O
IC50 [1]: 1.24 µM | IC50 (Trypanosoma cruzi): 11.2 µM | IC50 (L6): 4.53 µM | IC50 (Leishmania donovani): 1.93 µM | IC50 (Plasmodium falciparum): > 8 µM

CCCC(=O)c1ccc2c(c1)/C(=C1\C(=O)N([C@@H]3O[C@H](COC(C)=O)[C@@H](OC(C)=O)[C@H](OC(C)=O)[C@H]3OC(C)=O)c3ccc(Br)cc31)C(=O)N2
selectivity ratio [2]: 194 | IC50 [1]: 0.51 µM | IC50 (Trypanosoma cruzi): > 120 µM | selectivity ratio [3]: 27.5 | IC50 (L6): 99 µM | IC50 (Leishmania donovani): 3.6 µM | selectivity ratio [4]: 39.9 | IC50 (Plasmodium falciparum): 2.48 µM

CC(=O)OC[C@H]1O[C@@H](N2C(=O)/C(=C3/C(=O)Nc4ncccc43)c3cc(Br)ccc32)[C@H](OC(C)=O)[C@@H](OC(C)=O)[C@@H]1OC(C)=O
IC50 [1]: 0.88 µM | IC50 (Trypanosoma cruzi): 19.3 µM | IC50 (L6): 10 µM | IC50 (Leishmania donovani): 0.84 µM | IC50 (Plasmodium falciparum): > 7 µM

CC(=O)OC[C@H]1O[C@@H](N2C(=O)/C(=C3/C(=O)Nc4ccc(OC(F)(F)F)cc43)c3ccccc32)[C@H](OC(C)=O)[C@@H](OC(C)=O)[C@@H]1OC(C)=O
selectivity ratio [2]: 206 | IC50 [1]: 0.6 µM | IC50 (Trypanosoma cruzi): > 130 µM | IC50 (L6): 124 µM | IC50 (Leishmania donovani): 11.1 µM | IC50 (Plasmodium falciparum): > 7 µM

O=C(Cn1ccnc1[N+](=O)[O-])NCc1ccccc1 [BENZNIDAZOLE]
selectivity ratio [5]: > 135 | IC50 (Trypanosoma cruzi): 2.55 µM

CCN(CC)CCCC(C)Nc1ccnc2cc(Cl)ccc12 (stereo unspecified) [CHLOROQUINE]
selectivity ratio [4]: 327

Nc1nc(N)nc(Nc2ccc([As]3SCC(CO)S3)cc2)n1 (stereo unspecified) [MELARSOPROL]
selectivity ratio [2]: 193 | IC50 [1]: 0.013 µM

CCCCCCCCCCCCCCCCOP(=O)([O-])OCC[N+](C)(C)C [MILTEFOSINE]
selectivity ratio [3]: 265 | IC50 (Leishmania donovani): 0.37 µM
